According to patent publication US20180188338A1, “Nuclear Spin Polarization Enhancing Method Through Dynamic Nuclear Polarization by Using Soluble Pentacene” (RIKEN, priority 2015, published 2018):

Assay: confirmation of dissolution of the pentacene derivative in the solvent
Assay type: physicochemical
Protocol: Herein, all samples are compositions containing no test compound and including the pentacene derivative and/or the salt thereof and the solvent.
6,13-Diphenylpentacene (0.4 mg, produced by Sigma-Aldrich Co., Ltd.) represented by the following formula was prepared as the pentacene derivative represented by formula (A), and dissolved in a mixed liquid of water and deuterated ethanol (2 mL, pure water:ethanol=1:9% by mass) as the solvent, thereby preparing a sample.
6,13-Diphenylpentacene (0.5 mg) represented by the above formula, as the pentacene derivative represented by formula (A), was dissolved in a mixed liquid of benzene and polystyrene (1 mL, benzene:polystyrene=5:5% by mass) as the solvent, thereby preparing a sample.
(§1) 6,13-Diphenylpentacene (0.5 mg) represented by the above formula, as the pentacene derivative represented by formula (A), was dissolved in a mixed liquid of benzene and deuterated toluene (1 mL, benzene:deuterated toluene=1:9% by mass) as the solvent, thereby preparing a sample.
as §1, with “6,13-Dibiphenylpentacene (0.4 mg, produced by Luminescence Technology Crop.)” for “6,13-Diphenylpentacene (0.5 mg)”, “following” for “above”, “(2” for “(1”
(§2) 6,13-Bis[(triethylsilyl)ethynyl]pentacene (0.4 mg, produced by Sigma-Aldrich Co., Ltd.) represented by the following formula, as the pentacene derivative represented by formula (A), was dissolved in a mixed liquid of benzene and polystyrene (2 mL, benzene:polystyrene=5:5% by mass) as the solvent, thereby preparing a sample.
as §2, with “6,13-Bis[(triisopropylsilyl)ethynyl]pentacene” for “6,13-Bis[(triethylsilyl)ethynyl]pentacene”, “Tokyo Chemical Industry” for “Sigma-Aldrich”
Pentacene (0.4 mg, produced by Sigma-Aldrich Co., Ltd.) represented by the following formula, and a mixed liquid of benzene and deuterated toluene (2 mL, benzene:deuterated toluene=1:9% by mass) as the solvent were mixed, thereby preparing a composition for NMR measurement.

[1] = 0.4 mg in 2 mL mixed liquid of benzene and polystyrene (5:5 by mass)
[2] = 0.4 mg in 2 mL mixed liquid of benzene and deuterated toluene (1:9 by mass)

Structure (SMILES)	dissolution in the solvent [1]	dissolution in the solvent [2]	also measured
CC[Si](C#Cc1c2cc3ccccc3cc2c(C#C[Si](CC)(CC)CC)c2cc3ccccc3cc12)(CC)CC [6,13-bis[(triethylsilyl)ethynyl]pentacene]	completely dissolved	–	–
CC(C)[Si](C#Cc1c2cc3ccccc3cc2c(C#C[Si](C(C)C)(C(C)C)C(C)C)c2cc3ccccc3cc12)(C(C)C)C(C)C [6,13-bis[(triisopropylsilyl)ethynyl]pentacene]	completely dissolved	–	–
c1ccc(-c2ccc(-c3c4cc5ccccc5cc4c(-c4ccc(-c5ccccc5)cc4)c4cc5ccccc5cc34)cc2)cc1 [6,13-dibiphenylpentacene]	–	completely dissolved	–
c1ccc(-c2c3cc4ccccc4cc3c(-c3ccccc3)c3cc4ccccc4cc23)cc1 [6,13-diphenylpentacene]	–	–	dissolution in the solvent (0.4 mg in 2 mL mixed liquid of water and deuterated ethanol (1:9 by mass)): completely dissolved; dissolution in the solvent (0.5 mg in 1 mL mixed liquid of benzene and deuterated toluene (1:9 by mass)): completely dissolved; dissolution in the solvent (0.5 mg in 1 mL mixed liquid of benzene and polystyrene (5:5 by mass)): completely dissolved
c1ccc2cc3cc4cc5ccccc5cc4cc3cc2c1 [pentacene, Pentacene]	–	not almost dissolved	–
